Test results reported in patent US6235284A, “Synthetic polypeptides belonging to the hepatitis C virus (HCV) and which can be used especially for detecting the latter” (Bio Merieux, priority 1992, dated 2001).

Key:
[1] = test system: anti-HCV antibodies (HCV-positive sera); assay: ELISA detection of anti-HCV antibodies in HCV-positive sera with adsorbed peptides; type: binding, human
Procedure: The reactivity of these three peptides towards the sera of individuals infected with the hepatitis C virus, termed (HCV) positive, was evaluated in an ELISA test according to the procedure described below.
Detection of anti-HCV Antibodies by ELISA
The wells of a microtiter plate of "NUNC MAXISORB™" trademark are saturated with 100 μl of a solution containing the peptide or a mixture of peptides (10 μg/ml) for 2 hours at 37° C. The plate is then emptied, then washed with a wash buffer containing 0.05% TWEEN™ 20(polysorbate 20). The wells are saturated with 100 μl of wash buffer supplemented with 10% goat serum (v/v), then incubated for 30 minutes at 37° C., then washed again as above. The sera to be analyzed are diluted to the appropriate dilution with saturation buffer. The incubation of the sera is 1 hour at 37° C. The wells are again washed. The solution of conjugate (goat IgG to human IgG labelled with peroxidase) at a dilution of 1/1000 in the saturation buffer is then added and the incubation lasts for 90 minutes at 37° C. After washing, the solution of orthophenylenediamine substrate is added. After 10 minutes, the reaction is stopped with 50 μl of H2 SO4 and the optical density is read at 492 nm. It should be noted that all the tests were carried out in duplicate.
For that, the different peptides are adsorbed on the microplates at a concentration of 10 μg/ml and the sera are used at 1/100 dilution.
The values obtained, which are collated in Table 1 below, correspond to the optical density (OD) multiplied by 10^3, at 492 nm.
For each serum the experiment was carried out in duplicate. The **** are values outside the upper scale.
The different peptides are absorbed onto microplates at a concentration of 10 μg/ml and the sera are used at the dilution stated.
The values obtained, which are collated in Table 2 below, correspond to the optical density at 492 nm. All the experiments were carried out in duplicate.
Each serum was, in a first instance, tested at the dilution 1/100.
The values given correspond to the optical density read at 492 nm multiplied by the factor 10^3.

[2] = test system: anti-HCV antibodies binding onto peptide S42G; assay: Inhibition test: inhibition of binding of anti-HCV antibodies onto peptide S42G by preincubation with peptides; design: species or system human; settings: inhibitor 0.1 mg/ml
Procedure: To evaluate this hypothesis, inhibition tests, whose usefulness lies in the fact that they allow the formation of the antigen-antibody complex in liquid medium, were carried out, thus dispensing with possible artifacts linked to the adsorption of peptides onto a solid support.
The inhibition experiments were carried out by reaction, in liquid phase, of the HCV sera with the peptides followed by reaction of the remaining antibodies with the peptide adsorbed onto the microplates. The inhibitory peptides are incubated at a concentration of 0.1 mg/ml with sera of appropriate dilution. The rest of the manipulation is identical to that described for the ELISA test.
Peptide S18D (SEQ ID NO:11), or V22G (SEQ ID NO:12), or a mixture of both, is preincubated overnight in the presence of the serum to be tested. The antibodies can bind onto the corresponding sites.

S18D: a peptide of 20 amino acids covering sequence 2 to 21 of the CORE protein (STNPKPQRKTKRNTNRRPQD)
optical density at 492 nm ([1]; Table 2, line 68, serum not named (below CTS), 1/100): 2.500 OD | optical density at 492 nm ([1]; Table 2, line 69, serum not named (below CTS), 1/1000): 2.500 OD | optical density at 492 nm ([1]; Table 2, line 70, serum not named (below CTS), 1/10000): 0.347 OD | optical density at 492 nm ([1]; Table 2, line 75, serum B4, 1/1000): 1.250 OD | optical density at 492 nm ([1]; Table 2, line 76, serum B4, 1/1000 (so in the source)): 0.171 OD | optical density at 492 nm ([1]; Table 2, serum B1, 1/100): 1.859 OD | optical density at 492 nm ([1]; Table 2, serum B2, 1/100): 1.781 OD | optical density at 492 nm ([1]; Table 2, serum B3, 1/100): 1.244 OD | optical density at 492 nm ([1]; Table 2, serum B4, 1/100): 2.500 OD | optical density at 492 nm ([1]; Table 2, serum B5, 1/100): 2.032 OD | optical density at 492 nm ([1]; Table 2, serum B6, 1/100): 2.500 OD | optical density at 492 nm ([1]; Table 2, serum B7, 1/100): 2.500 OD | optical density at 492 nm ([1]; Table 2, serum B8, 1/100): 1.362 OD | optical density at 492 nm ([1]; Table 2, serum B9, 1/100): 0.808 OD | optical density at 492 nm ([1]; Table 2, serum B10, 1/100): 0.099 OD | optical density at 492 nm ([1]; Table 2, serum B11, 1/100): 2.324 OD | optical density at 492 nm ([1]; Table 2, serum B12, 1/100): 1.375 OD | optical density at 492 nm ([1]; Table 2, serum B13, 1/100): 0.370 OD | optical density at 492 nm ([1]; Table 2, serum B14, 1/100): 0.072 OD | optical density at 492 nm ([1]; Table 2, serum B15, 1/100): 0.090 OD | optical density at 492 nm ([1]; Table 2, serum B16, 1/100): 2.500 OD | optical density at 492 nm ([1]; Table 2, serum CTS, 1/100): 2.500 OD | optical density at 492 nm ([1]; Table 2, serum CTS, 1/1000): 2.500 OD | optical density at 492 nm ([1]; Table 2, serum CTS, 1/10000): 0.295 OD | optical density at 492 nm ([1]; Table 2, serum P1, 1/100): 0.012 OD | optical density at 492 nm ([1]; Table 2, serum P2, 1/100): 0.020 OD | optical density at 492 nm ([1]; Table 2, serum P3, 1/100): 0.162 OD | optical density at 492 nm ([1]; Table 2, serum P4, 1/100): 0.982 OD | optical density at 492 nm ([1]; Table 2, serum P5, 1/100): 2.500 OD | optical density at 492 nm ([1]; Table 2, serum P5, 1/1000): 2.317 OD | optical density at 492 nm ([1]; Table 2, serum P5, 1/10000): 0.399 OD | optical density at 492 nm ([1]; Table 2, serum P6, 1/100): 0.007 OD | optical density at 492 nm ([1]; Table 2, serum P7, 1/100): 2.500 OD | optical density at 492 nm ([1]; Table 2, serum P7, 1/1000): 0.854 OD | optical density at 492 nm ([1]; Table 2, serum P7, 1/10000): 0.165 OD | optical density at 492 nm ([1]; Table 2, serum P8, 1/100): 2.500 OD | optical density at 492 nm ([1]; Table 2, serum P8, 1/1000): 2.500 OD | optical density at 492 nm ([1]; Table 2, serum P8, 1/10000): 0.681 OD | optical density at 492 nm ([1]; Table 2, serum P9, 1/100): 0.019 OD | optical density at 492 nm ([1]; Table 2, serum P10, 1/100): 0.028 OD | optical density at 492 nm ([1]; Table 2, serum P11, 1/100): 0.383 OD | optical density at 492 nm ([1]; Table 2, serum P12, 1/100): 2.500 OD | optical density at 492 nm ([1]; Table 2, serum P12, 1/1000): 2.500 OD | optical density at 492 nm ([1]; Table 2, serum P12, 1/10000): 0.454 OD | optical density at 492 nm ([1]; Table 2, serum P13, 1/100): 0.012 OD | optical density at 492 nm ([1]; Table 2, serum P14, 1/100): 0.907 OD | optical density at 492 nm ([1]; Table 2, serum P15, 1/100): 2.500 OD | optical density at 492 nm ([1]; Table 2, serum P16, 1/100): 0.225 OD | optical density at 492 nm ([1]; Table 2, serum P17, 1/100): 0.297 OD | optical density at 492 nm ([1]; Table 2, serum P18, 1/100): 2.500 OD | optical density at 492 nm ([1]; Table 2, serum P18, 1/1000): 0.297 OD | optical density at 492 nm ([1]; Table 2, serum P18, 1/10000): 0.095 OD | optical density at 492 nm ([1]; Table 2, serum P19, 1/100): 0.011 OD | optical density at 492 nm ([1]; Table 2, serum P20, 1/100): 1.433 OD | optical density at 492 nm ([1]; Table 2, serum P21, 1/100): 0.111 OD | optical density at 492 nm ([1]; Table 2, serum P22, 1/100): 2.500 OD | optical density at 492 nm ([1]; Table 2, serum P22, 1/1000): 1.142 OD | optical density at 492 nm ([1]; Table 2, serum P22, 1/10000): 0.146 OD | optical density at 492 nm ([1]; Table 2, serum P23, 1/100): 0.015 OD | optical density at 492 nm ([1]; Table 2, serum P24, 1/100): 0.015 OD | optical density at 492 nm ([1]; Table 2, serum P25, 1/100): 2.500 OD | optical density at 492 nm ([1]; Table 2, serum P25, 1/1000): 2.199 OD | optical density at 492 nm ([1]; Table 2, serum P25, 1/10000): 0.329 OD | optical density at 492 nm ([1]; Table 2, serum P26, 1/100): 2.500 OD | optical density at 492 nm ([1]; Table 2, serum P26, 1/1000): 2.500 OD | optical density at 492 nm ([1]; Table 2, serum P26, 1/10000): 0.957 OD | optical density at 492 nm ([1]; Table 2, serum P27, 1/100): 1.425 OD | optical density at 492 nm ([1]; Table 2, serum P28, 1/100): 0.115 OD | optical density at 492 nm ([1]; Table 2, serum P29, 1/100): 0.000 OD | optical density at 492 nm ([1]; Table 2, serum P30, 1/100): 0.483 OD | optical density at 492 nm ([1]; Table 2, serum P31, 1/100): 2.500 OD | optical density at 492 nm ([1]; Table 2, serum P31, 1/1000): 1.975 OD | optical density at 492 nm ([1]; Table 2, serum P31, 1/10000): 0.183 OD | optical density at 492 nm ([1]; Table 2, serum P32, 1/100): 1.046 OD | optical density at 492 nm ([1]; Table 2, serum P33, 1/100): 1.307 OD | optical density at 492 nm ([1]; Table 2, serum P34, 1/100): 2.500 OD | optical density at 492 nm ([1]; Table 2, serum P35, 1/100): 2.500 OD | optical density at 492 nm ([1]; Table 2, serum P36, 1/100): 0.115 OD | optical density at 492 nm ([1]; Table 2, serum P37, 1/100): 2.500 OD | optical density at 492 nm ([1]; Table 2, serum P37, 1/1000): 0.523 OD | optical density at 492 nm ([1]; Table 2, serum P37, 1/10000): 0.102 OD | optical density at 492 nm ([1]; Table 2, serum P38, 1/100): 2.500 OD | optical density at 492 nm ([1]; Table 2, serum P38, 1/1000): 0.753 OD | optical density at 492 nm ([1]; Table 2, serum P38, 1/10000): 0.099 OD | optical density at 492 nm ([1]; Table 2, serum P39, 1/100): 2.500 OD | optical density at 492 nm ([1]; Table 2, serum P40, 1/100): 2.500 OD | optical density at 492 nm ([1]; Table 2, serum P41, 1/100): 1.579 OD | optical density at 492 nm ([1]; Table 2, serum P42, 1/100): 0.000 OD | reactivity towards HCV-positive sera ([1]; in words): react | inhibition ([2]; serum B4, 1/10,000): 16.8% | inhibition ([2]; serum P5, 1/10,000): 3.5% | inhibition ([2]; serum P7, 1/10,000): 8.4% | inhibition ([2]; serum P8, 1/10,000): 1.4% | inhibition ([2]; serum P18, 1/10,000): 10.6% | inhibition ([2]; serum P22, 1/10,000): 6.6% | inhibition ([2]; serum P25, 1/10,000): 14.1% | inhibition ([2]; serum P31, 1/10,000): 2.0% | inhibition ([2]; serum P37, 1/10,000): 43.6% | inhibition ([2]; serum P38, 1/10,000): 8.9%
